Usually EC50 stands for the concentration that produces a half-maximal response.

We go through four compounds from patent US12612442B2, “G12-specific designer receptor exclusively activated by designer drugs” (CELL NETWORKS GMBH, priority 2019, dated 2026).

Assay [1] has as its system DREADDs (M3D, M4D, M3D-Gs, M3D-GPR183/ICL3, M3D-GPR132/ICL3). Description: NanoBiT-G-protein dissociation assay, DREADD panel with titrated CNO. In kind it is cell-based, human. To be noted: all of the DREADDs, HEK293 cells, read-out: EC50 values of CNO for each primary-coupling G-protein. The protocol:
(§1) Plasmid transfection was performed in a 6-well plate with a mixture of 100 ng Gα-Lg-encoding plasmid, 500 ng Sm-Gβ-encoding plasmid, 500 ng untagged Gγ2-encoding plasmid, 200 ng GPCR-encoding plasmid with or without 100 ng RIC8-encoding plasmid (per well, hereafter). Unless otherwise stated, the combination of following plasmid mixtures was used: Gαs-Lg, Sm-Gβ1, Gγ2 and RIC8B for NanoBiT-Gs; Gαi1-Lg, Sm-Gβ5 and Gγ2 for NanoBiT-Gi1; Gαi2-Lg, Sm-Gβ3 and Gγ2 for NanoBiT-Gi2; Gαi3-Lg, Sm-Gβ3 and Gγ2 for NanoBiT-Gi3; Gαo-Lg, Sm-Gβ1 and Gγ2 for NanoBiT-Go; Gαq-Lg, Sm-Gβ1, Gγ2 and RIC8A for NanoBiT-Gq; Gα12-Lg, Sm-Gβ1, Gγ2 and RIC8A for NanoBiT-G12; Gα13-Lg, Sm-Gβ1, Gγ2 and RIC8A for NanoBiT-G13. After 1-day culture, the transfected cells were harvested with 1 mL of 0.53 mM EDTA-containing Dulbecco's PBS (D-PBS), followed by addition of 2 mL the HEPES-containing HBSS. The cells were pelleted by centrifugation at 190 g for 5 min and resuspended in 2 mL of the 0.01% BSA- and 5 mM HEPES (pH 7.4)-containing HBSS (assay buffer). […] After 2-h incubation with coelenterazine at room temperature, background luminescent signals were measured using a luminescent microplate reader (SpectraMax L, Molecular Devices). […] Luminescent signals were measured 3-5 min after ligand addition and divided by the initial count. […]

The target of assay [2] is T1, M3D-GPR183/ICL3 (Homo sapiens, UniProt P20309, A239G/DEL264-389/DEL400-485/E393L/E394T/G397S/K260R/L396K/M398G/R261T/T262A/V391N/Y149C).
T1 construct: expressed in transfected cells; host or cells: parental HEK293 (NanoBiT-G-protein assay); ΔGq HEK293 (TGFα shedding assay)
T1 sequence (P20309 with tags, fused parts or gaps Y149C/A239G/K260R/R261T/T262A/DEL264-389/V391N/E393L/E394T/L396K/G397S/M398G/DEL400-485): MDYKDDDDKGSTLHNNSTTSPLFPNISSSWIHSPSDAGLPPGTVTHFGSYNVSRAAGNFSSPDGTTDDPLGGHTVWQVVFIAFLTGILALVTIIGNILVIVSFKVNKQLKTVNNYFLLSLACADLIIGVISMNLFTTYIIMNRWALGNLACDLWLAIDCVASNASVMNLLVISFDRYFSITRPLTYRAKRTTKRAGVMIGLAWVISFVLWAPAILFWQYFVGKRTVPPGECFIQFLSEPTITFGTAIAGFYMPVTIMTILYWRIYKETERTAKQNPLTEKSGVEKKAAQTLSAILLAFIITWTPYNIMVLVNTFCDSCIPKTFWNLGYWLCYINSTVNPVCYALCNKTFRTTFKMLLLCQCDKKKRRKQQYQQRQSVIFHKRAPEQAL
As to the kind of experiment: NanoBiT-G-protein dissociation assay, M3D-GPR183/ICL3. The class given is cell-based. The protocol: (§2) Plasmid transfection was performed in a 6-well plate with a mixture of 100 ng Gα-Lg-encoding plasmid, 500 ng Sm-Gβ-encoding plasmid, 500 ng untagged Gγ2-encoding plasmid, 200 ng GPCR-encoding plasmid with or without 100 ng RIC8-encoding plasmid (per well, hereafter). Unless otherwise stated, the combination of following plasmid mixtures was used: Gαs-Lg, Sm-Gβ1, Gγ2 and RIC8B for NanoBiT-Gs; Gαi1-Lg, Sm-Gβ5 and Gγ2 for NanoBiT-Gi1; Gαi2-Lg, Sm-Gβ3 and Gγ2 for NanoBiT-Gi2; Gαi3-Lg, Sm-Gβ3 and Gγ2 for NanoBiT-Gi3; Gαo-Lg, Sm-Gβ1 and Gγ2 for NanoBiT-Go; Gαq-Lg, Sm-Gβ1, Gγ2 and RIC8A for NanoBiT-Gq; Gα12-Lg, Sm-Gβ1, Gγ2 and RIC8A for NanoBiT-G12; Gα13-Lg, Sm-Gβ1, Gγ2 and RIC8A for NanoBiT-G13. After 1-day culture, the transfected cells were harvested with 1 mL of 0.53 mM EDTA-containing Dulbecco's PBS (D-PBS), followed by addition of 2 mL the HEPES-containing HBSS. The cells were pelleted by centrifugation at 190 g for 5 min and resuspended in 2 mL of the 0.01% BSA- and 5 mM HEPES (pH 7.4)-containing HBSS (assay buffer). The cell suspension was seeded in a 96-well culture white plate (Greiner Bio-One) at a volume of 80 μl (per well hereafter) and loaded with 20 μl of 50 μM coelenterazine (Carbosynth) solution diluted in the assay buffer. After 2-h incubation with coelenterazine at room temperature, background luminescent signals were measured using a luminescent microplate reader (SpectraMax L, Molecular Devices). The inventors note that incubation time with coelenterazine can be shortened, but an effect of baseline drift should be taken into account (FIG. 14C-E). Test compound (6×, diluted in the assay buffer) was manually added to the cells (20 μl). Luminescent signals were measured 3-5 min after ligand addition and divided by the initial count. The ligand-induced signal ratio was normalized to that treated with vehicle. The consequent fold-change values were fitted to a four-parameter sigmoidal concentration-response described above.

The target in assay [3] is T2, M3D-GPR132/ICL3 (Homo sapiens, UniProt P20309, A239G/DEL260-297/DEL301-447/DEL453-484/K449L/K485Q/T451A/Y149C).
T2 construct: expressed in transfected cells; host or cells: parental HEK293 (NanoBiT-G-protein assay); ΔGq HEK293 (TGFα shedding assay)
T2 sequence (P20309 with tags, fused parts or gaps Y149C/A239G/DEL260-297/DEL301-447/K449L/T451A/DEL453-484/K485Q): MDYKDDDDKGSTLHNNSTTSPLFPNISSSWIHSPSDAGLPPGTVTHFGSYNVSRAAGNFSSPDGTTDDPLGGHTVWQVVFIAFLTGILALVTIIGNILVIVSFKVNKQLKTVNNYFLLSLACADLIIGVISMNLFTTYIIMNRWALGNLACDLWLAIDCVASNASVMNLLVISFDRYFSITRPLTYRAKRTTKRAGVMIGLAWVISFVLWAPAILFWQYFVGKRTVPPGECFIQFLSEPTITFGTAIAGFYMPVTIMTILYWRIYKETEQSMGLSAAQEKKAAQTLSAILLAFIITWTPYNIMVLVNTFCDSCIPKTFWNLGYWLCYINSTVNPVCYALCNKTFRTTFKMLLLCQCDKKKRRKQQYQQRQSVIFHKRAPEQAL
As to the kind of experiment: NanoBiT-G-protein dissociation assay, M3D-GPR132/ICL3. In kind it is cell-based. The protocol: as §2

A further assay concerns M3D-P2RY10/ICL3. As to the kind of experiment: NanoBiT-G-protein dissociation assay, M3D-P2RY10/ICL3. In kind it is cell-based, human. To be noted: 10 μM CNO; parental HEK293 cells. On the procedure: as §1
The subject of the next assay is M3D-NMBR/ICL3. Description: NanoBiT-G-protein dissociation assay, M3D-NMBR/ICL3. The class given is cell-based, human. To be noted: 10 μM CNO; parental HEK293 cells. The protocol:
as §1

A further assay has as its system M3D-LTB4R2/ICL3. Description: NanoBiT-G-protein dissociation assay, M3D-LTB4R2/ICL3. In kind it is cell-based, human. To be noted: 10 μM CNO; parental HEK293 cells. On the procedure:
as §1

In assay [4] the target is T1, M3D-GPR183/ICL3. As to the kind of experiment: TGFα shedding assay in ΔGq HEK293 cells, M3D-GPR183/ICL3. The class given is cell-based. The following applies: 10 μM CNO. The protocol:
(§3) The TGFα shedding assay was performed as described previously (Inoue et al., 2012) with minor modifications. Plasmid transfection was performed in a 6-well plate with a mixture of 500 ng AP-TGFα-encoding plasmid, 200 ng GPCR-encoding plasmid with or without 100 ng Gα-encoding plasmid (per well, hereafter). After 1-day culture, the transfected cells were harvested by trypsinization, pelleted by centrifugation at 190 g for 5 min and washed once with Hank's Balanced Salt Solution (HBSS) containing 5 mM HEPES (pH 7.4). After centrifugation, the cells were resuspended in 6 ml of the HEPES-containing HBSS. […] The cell suspension was seeded in a 96-well culture plate (cell plate) at a volume of 90 μl (per well hereafter) and incubated for 30 min in a 5% CO2 incubator at 37° C. The cells were treated with a GPCR ligand (10×, diluted in HBSS containing 5 mM HEPES (pH 7.4) and 0.01% (w/v) bovine serum albumin (BSA, fatty acid-free and protease-free grade; Serva)). After spinning the cell plates, conditioned media (80 μl) was transferred to an empty 96-well plate (conditioned media (CM) plate). […] Absorbance at 405 nm (Ab405) of the plates was measured, using a microplate reader (SpectraMax 340 PC384, Molecular Devices), before and after 1-h or 2-h incubation at room temperature. Ligand-induced AP-TGFα release was calculated as described previously. […]

Assay [5] addresses T2, M3D-GPR132/ICL3. As to the kind of experiment: TGFα shedding assay in ΔGq HEK293 cells, M3D-GPR132/ICL3. The class given is cell-based. To be noted: 10 μM CNO. On the procedure:
as §3

The test system of assay [6] is RhoA. Description: Active RhoA pulldown assay in HN12 cells. The class given is cell-based. The following applies: 10 μM CP-55940, 1 μM Ang II, 5 min. On the procedure:
(§4) HN12 cells and Cal27 cells were cultured to 50% confluency, and then serum starved overnight. To induce RhoA activation, cells were treated with 5 μM LPA, 1 μM Ang II, or 10 μM CP-55940 for 5 min. Active RhoA levels were measured using the RhoA Pull-Down Activation Assay Biochem Kit (bead pull-down format; Cytoskeleton) following the manufacturer instruction using a modified lysis buffer (50 mM Tris-HCl (pH 7.2), 500 mM NaCl, 10 mM MgCl2, 0.1% SDS, 1% NP-40). Briefly, after stimulation, samples were lysed and protein concentrations were quantified using DC Protein Assay (BioRad). Samples were adjusted to the same concentration with lysis buffer and 500 μg of each protein lysate was added to 15 μL GST-tagged Rhotekin-RBD bound to Sepharose beads. Samples were incubated while rocking at 4° C. for 1.5 h. Beads were then washed, eluted in Laemmli sample buffer, and analyzed by western blot using a mouse monoclonal anti-RhoA antibody (Cytoskeleton).

The subject of assay [7] is RhoA. Description: Active RhoA pulldown assay in Cal27 cells. The class given is cell-based. To be noted: 10 μM CP-55940, 1 μM Ang II, 5 min. On the procedure:
as §4

The target in another assay is CNR1 (Homo sapiens, UniProt P21554). The following applies: HEK293 cells expressing CNR1.
Assay [8] deals with RhoA. Description: NanoBiT-RhoA assay in PC-3 cells (endogenously expressed GPCRs). The following applies: thrombin 1000 U L^−1. The class given is cell-based, human.
Description: (§5) The transfected cells were harvested, seeded in a white 96-well plate and loaded with 10 μM CTZ in the same manner described in the NanoBiT-G-protein dissociation assay. After measuring an initial luminescent signal, test compounds were added to the cells. Then, 3-5 min later, luminescent signals were measured and fold-change values were plotted as described above.
Assay [9] relates to RhoA. Description: NanoBiT-RhoA assay in MDA-MB-231 cells (endogenously expressed GPCRs). In kind it is cell-based, human. To be noted: thrombin 1000 U L^−1.
Description: as §5
Where [10] appears, read: 10 μM CNO, parental HEK293 cells.
Where [11] appears, read: titrated CNO, NanoBiT-Gs, Go, Gq, G12 compared.

CNR1, sequence (P21554 whole entry): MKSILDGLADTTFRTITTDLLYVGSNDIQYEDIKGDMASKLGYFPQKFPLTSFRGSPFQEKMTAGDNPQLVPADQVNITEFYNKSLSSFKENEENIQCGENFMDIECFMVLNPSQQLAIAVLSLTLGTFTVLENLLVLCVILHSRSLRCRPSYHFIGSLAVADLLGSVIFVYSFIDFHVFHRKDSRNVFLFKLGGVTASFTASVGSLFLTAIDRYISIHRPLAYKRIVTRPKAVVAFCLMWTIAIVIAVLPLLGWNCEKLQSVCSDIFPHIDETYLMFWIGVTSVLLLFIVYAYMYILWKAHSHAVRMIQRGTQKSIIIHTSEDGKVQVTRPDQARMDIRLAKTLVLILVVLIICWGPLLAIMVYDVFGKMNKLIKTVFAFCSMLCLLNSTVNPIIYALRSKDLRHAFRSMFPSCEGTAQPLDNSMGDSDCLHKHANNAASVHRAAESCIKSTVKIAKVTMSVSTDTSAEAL
Description for CNR1: as §5

In the case of `C[N+]1([O-])CCN(C2=Nc3cc(Cl)ccc3Nc3ccccc32)CC1` [CNO, clozapine-N-oxide], in [1], the EC50 was 100 to 1000 nM. Further, the NanoBiT-G13 dissociation signal entry at M3D-GPR183/ICL3 [2] (10 μM CNO) and at M3D-GPR132/ICL3 [3] (10 μM CNO) was “lack of G13 activation” throughout. In addition, the “G12 and Go coupling (NanoBiT-G12 / NanoBiT-Go screening)” value is “coupled to G12 and not to Go” at M3D-GPR183/ICL3 [2] (setting [10]); “coupled to G12 and not to Go” on M3D-GPR132/ICL3 [3] (setting [10]); “coupled to G12 and not to Go” with M3D-P2RY10/ICL3; “coupled to G12 and not to Go” with M3D-NMBR/ICL3; “induced both G12 and Go coupling with a higher Go dissociation signal” in the assay on M3D-LTB4R2/ICL3. Further, the G12 dissociation signal entry on M3D-GPR183/ICL3 [2] (setting [11]) and on M3D-GPR132/ICL3 [3] (setting [11]) was “robust G12 dissociation signal” each time. Also, the “G12 signaling (TGFα shedding response)” value on M3D-GPR183/ICL3 [4] and on M3D-GPR132/ICL3 [5] was “significant G12 signaling” throughout.
Consider `CCCCCCC(C)(C)c1ccc([C@@H]2C[C@H](O)CC[C@H]2CCCO)c(O)c1` [CP-55940], for which the “RhoA activation (GTP-bound RhoA pulldown)” value in the assay on RhoA [6] and in the assay on RhoA [7] was “induced activation of RhoA” throughout. Also, the RhoA activation result on CNR1 is recorded as “RhoA activation occurred”.
“angiotensin II (DRVYIHPF; Angiotensin-2; UniProt P01019 25-32, looked up) [Ang II, endogenous ligand of AGTR1]”: the “RhoA activation (GTP-bound RhoA pulldown)” value in the assay on RhoA [6] and with RhoA [7] was “induced activation of RhoA” each time.
On to thrombin, for which the RhoA activation result in the assay with RhoA [8] and in the assay on RhoA [9] was “activated RhoA” throughout.
